Species on record: Rattus norvegicus
Assay: DrugMatrix - Regimen: Daily Repeat
Type: toxicity, organism-based, Sprague-Dawley
Set-up: regimen Daily Repeat, gender Male, age 6-8 weeks
Details: in vivo, po, route oral GAVAGE, vehicle .5 % CMC; for BASOPHIL / EOSINOPHIL / ERYTHROCYTE COUNT / HEMATOCRIT / HEMOGLOBIN / LEUKOCYTE COUNT / LYMPHOCYTE / MEAN CORPUSCULAR HEMOGLOBIN / MEAN CORPUSCULAR HEMOGLOBIN CONCENTRATION / MEAN CORPUSCULAR VOLUME / MONOCYTE / NEUTROPHIL / PLATELET COUNT: tissue Blood; for ALANINE AMINOTRANSFERASE / ALBUMIN / ALKALINE PHOSPHATASE / ASPARTATE AMINOTRANSFERASE / BLOOD UREA NITROGEN / CHLORIDE / CHOLESTEROL / CREATINE PHOSPHOKINASE / CREATININE / GLUCOSE / PHOSPHORUS / POTASSIUM / SODIUM / TOTAL BILIRUBIN / TOTAL PROTEIN: tissue Plasma
[1] = 40 mg/kg, 72 h, dose level Low, time 3 day
[2] = 40 mg/kg, 120 h, dose level Low, time 5 day
[3] = 99 mg/kg, 72 h, dose level High, time 3 day
[4] = 99 mg/kg, 120 h, dose level High, time 5 day

CO[C@H]1/C=C/O[C@@]2(C)Oc3c(C)c(O)c4c(O)c(c(/C=N/N5CCN(C)CC5)c(O)c4c3C2=O)NC(=O)/C(C)=C\C=C\[C@H](C)[C@H](O)[C@@H](C)[C@@H](O)[C@@H](C)[C@H](OC(C)=O)[C@@H]1C [RIFAMPIN]
BASOPHIL [1]: 0% | EOSINOPHIL [1]: 0% | ERYTHROCYTE COUNT [1]: 6.01 x10E6/uL | HEMATOCRIT [1]: 36.73% | HEMOGLOBIN [1]: 14.33 G/DL | LEUKOCYTE COUNT [1]: 9.07 x10E3/uL | LYMPHOCYTE [1]: 88% | MEAN CORPUSCULAR HEMOGLOBIN [1]: 23.83 pg | MEAN CORPUSCULAR HEMOGLOBIN CONCENTRATION [1]: 39.03 G/DL | MEAN CORPUSCULAR VOLUME [1]: 61.1 fL | MONOCYTE [1]: 2.33% | NEUTROPHIL [1]: 9.67% | PLATELET COUNT [1]: 1111.33 x10E3/uL | ALANINE AMINOTRANSFERASE [1]: 36 u/L | ALBUMIN [1]: 3.6 G/DL | ALKALINE PHOSPHATASE [1]: 274 u/L | ASPARTATE AMINOTRANSFERASE [1]: 60 u/L | BLOOD UREA NITROGEN [1]: 9 mg/dL | CHLORIDE [1]: 108 MEQ/L | CHOLESTEROL [1]: 63.33 mg/dL | CREATINE PHOSPHOKINASE [1]: 115.33 u/L | CREATININE [1]: 0.43 mg/dL | GLUCOSE [1]: 170.33 mg/dL | PHOSPHORUS [1]: 11.3 mg/dL | POTASSIUM [1]: 6.6 MEQ/L | SODIUM [1]: 152.67 MEQ/L | TOTAL BILIRUBIN [1]: 0.33 mg/dL | TOTAL PROTEIN [1]: 5.73 G/DL | BASOPHIL [2]: 0% | EOSINOPHIL [2]: 0% | ERYTHROCYTE COUNT [2]: 6.22 x10E6/uL | HEMATOCRIT [2]: 36.5% | HEMOGLOBIN [2]: 14.57 G/DL | LEUKOCYTE COUNT [2]: 14.23 x10E3/uL | LYMPHOCYTE [2]: 89.33% | MEAN CORPUSCULAR HEMOGLOBIN [2]: 23.47 pg | MEAN CORPUSCULAR HEMOGLOBIN CONCENTRATION [2]: 39.93 G/DL | MEAN CORPUSCULAR VOLUME [2]: 58.8 fL | MONOCYTE [2]: 2.67% | NEUTROPHIL [2]: 8% | PLATELET COUNT [2]: 1082.67 x10E3/uL | ALANINE AMINOTRANSFERASE [2]: 42.33 u/L | ALBUMIN [2]: 3.7 G/DL | ALKALINE PHOSPHATASE [2]: 325 u/L | ASPARTATE AMINOTRANSFERASE [2]: 62.67 u/L | BLOOD UREA NITROGEN [2]: 13.67 mg/dL | CHLORIDE [2]: 107.33 MEQ/L | CHOLESTEROL [2]: 78.33 mg/dL | CREATINE PHOSPHOKINASE [2]: 142 u/L | CREATININE [2]: 0.57 mg/dL | GLUCOSE [2]: 180.33 mg/dL | PHOSPHORUS [2]: 10.97 mg/dL | POTASSIUM [2]: 6.63 MEQ/L | SODIUM [2]: 150.33 MEQ/L | TOTAL BILIRUBIN [2]: 0.3 mg/dL | TOTAL PROTEIN [2]: 6.03 G/DL | BASOPHIL [3]: 0% | EOSINOPHIL [3]: 0.33% | ERYTHROCYTE COUNT [3]: 5.7 x10E6/uL | HEMATOCRIT [3]: 35.03% | HEMOGLOBIN [3]: 13.93 G/DL | LEUKOCYTE COUNT [3]: 12.7 x10E3/uL | LYMPHOCYTE [3]: 89% | MEAN CORPUSCULAR HEMOGLOBIN [3]: 24.47 pg | MEAN CORPUSCULAR HEMOGLOBIN CONCENTRATION [3]: 39.77 G/DL | MEAN CORPUSCULAR VOLUME [3]: 61.5 fL | MONOCYTE [3]: 2% | NEUTROPHIL [3]: 8.67% | PLATELET COUNT [3]: 1047.33 x10E3/uL | ALANINE AMINOTRANSFERASE [3]: 41 u/L | ALBUMIN [3]: 3.8 G/DL | ALKALINE PHOSPHATASE [3]: 360.33 u/L | ASPARTATE AMINOTRANSFERASE [3]: 60 u/L | BLOOD UREA NITROGEN [3]: 10.67 mg/dL | CHLORIDE [3]: 106.67 MEQ/L | CHOLESTEROL [3]: 93.67 mg/dL | CREATINE PHOSPHOKINASE [3]: 139 u/L | CREATININE [3]: 0.43 mg/dL | GLUCOSE [3]: 166.33 mg/dL | PHOSPHORUS [3]: 11.6 mg/dL | POTASSIUM [3]: 6.4 MEQ/L | SODIUM [3]: 153 MEQ/L | TOTAL BILIRUBIN [3]: 0.3 mg/dL | TOTAL PROTEIN [3]: 6.1 G/DL | BASOPHIL [4]: 0% | EOSINOPHIL [4]: 0.33% | ERYTHROCYTE COUNT [4]: 5.79 x10E6/uL | HEMATOCRIT [4]: 34.87% | HEMOGLOBIN [4]: 13.73 G/DL | LEUKOCYTE COUNT [4]: 17.13 x10E3/uL | LYMPHOCYTE [4]: 85% | MEAN CORPUSCULAR HEMOGLOBIN [4]: 23.73 pg | MEAN CORPUSCULAR HEMOGLOBIN CONCENTRATION [4]: 39.4 G/DL | MEAN CORPUSCULAR VOLUME [4]: 60.23 fL | MONOCYTE [4]: 2% | NEUTROPHIL [4]: 12.67% | PLATELET COUNT [4]: 1010.67 x10E3/uL | ALANINE AMINOTRANSFERASE [4]: 46 u/L | ALBUMIN [4]: 3.6 G/DL | ALKALINE PHOSPHATASE [4]: 384.33 u/L | ASPARTATE AMINOTRANSFERASE [4]: 64.33 u/L | BLOOD UREA NITROGEN [4]: 11.33 mg/dL | CHLORIDE [4]: 108.33 MEQ/L | CHOLESTEROL [4]: 75 mg/dL | CREATINE PHOSPHOKINASE [4]: 143 u/L | CREATININE [4]: 0.5 mg/dL | GLUCOSE [4]: 177.67 mg/dL | PHOSPHORUS [4]: 11.1 mg/dL | POTASSIUM [4]: 6.3 MEQ/L | SODIUM [4]: 149.33 MEQ/L | TOTAL BILIRUBIN [4]: 0.37 mg/dL | TOTAL PROTEIN [4]: 5.67 G/DL

Source: ChEMBL document CHEMBL3885881, “DrugMatrix”
